Laboratory results from patent publication US4861788A, “Antibacterial 1-normon-2-yl-heterocyclic compounds” (Beecham Group plc, priority 1983, dated 1989).
Converted amounts (≈) assume the structure as drawn. Where two headings read alike, the source gives them in different places.

Assays:
M. hyopneumoniae NB12 = assay: MIC against Mycoplasma in vitro (Friis broth with agarose); type: cell-based; settings: Mesomycoplasma hyopneumoniae
M. hyopneumoniae MS 16 = assay: as above; type: cell-based; settings: Mesomycoplasma hyopneumoniae, MS16, 144 h
[1] = test system: M. hyopneumoniae PW/C/210; assay: as above; type: cell-based; settings: Mesomycoplasma hyopneumoniae, 144 h
M. hyopneumoniae LABER = assay: as above; type: cell-based; settings: Mesomycoplasma hyopneumoniae, 144 h
[2] = test system: M. hyopneumoniae ATCC 25095; assay: as above; type: cell-based; settings: Mesomycoplasma hyopneumoniae, ATCC25095, 144 h
[3] = test system: M. hyopneumoniae NCTC 101101; assay: as above; type: cell-based; settings: Mesomycoplasma hyopneumoniae, NCTC101101, 144 h
M. hyorhinis ATCC 25021 = assay: as above; type: cell-based; settings: Mesomycoplasma hyorhinis, ATCC25021, 144 h
[4] = test system: M. hyosynoviae ATCC 25591; assay: as above; type: cell-based; settings: 144 h
M. bovis NCTC 10131 = assay: microbe, parasite or virus in culture; type: cell-based; settings: NCTC10131, 144 h
[5] = test system: M. bovigenitalium ATCC 14173; assay: MIC against Mycoplasma in vitro (Friis broth with agarose); type: cell-based; settings: 144 h
M. dispar NCTC 10125 = assay: as above; type: cell-based; settings: 144 h
[6] = test system: Haemophilus influenzae Q1; assay: MIC against human bacteria in vitro (nutrient agar, chocolated horse blood); type: cell-based
Procedure, shortened: (§1)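 Compounds were tested in vitro by serial dilution in nutrient agar containing 5% chocolated horse blood, and the MIC was read as the lowest inhibitory concentration.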

[7] = test system: Neisseria catarrhalis 1502; assay: as above; type: cell-based
Procedure, shortened: as §1

Strep. pneumoniae CN33 = assay: as above; type: cell-based; settings: Streptococcus pneumoniae
Procedure, shortened: as §1

E. coli NCTC 10418 = assay: MIC against veterinary bacteria in vitro (Diagnostic Sensitivity Test Agar); settings: Escherichia coli, NCTC10418, 18 h
Protocol: (§2) The activity of the normonyl derivatives of the Examples against various veterinarily important bacteria, was assayed in vitro using two-fold serial dilutions in Diagnostic Sensitivity Test Agar inoculated with 10^4 organisms.

E. coli E1 = assay: as above; settings: Escherichia coli, E1, 18 h
Protocol: as §2

S. dublin S7 = assay: as above; settings: Salmonella enterica, S7, 18 h
Protocol: as §2

Bord. bronchiseptica B08 = assay: as above; settings: Bordetella bronchiseptica, B08, 18 h
Protocol: as §2

Bord. bronchiseptica B09 = assay: as above; settings: Bordetella bronchiseptica, B09, 18 h
Protocol: as §2

Past. multocida PA1 = assay: as above; settings: Pasteurella multocida, PA1, 18 h
Protocol: as §2

Past. multocida PA2 = assay: as above; settings: Pasteurella multocida, PA2, 18 h
Protocol: as §2

[8] = test system: Erysipelothrix rhusiopathiae NCTC 8163; assay: as above; settings: NCTC8163, 18 h
Protocol: as §2

Strep. uberis SPU1 = assay: as above; settings: Streptococcus uberis, SPU1, 18 h
Protocol: as §2

Strep. agalactiae SPA1 = assay: as above; settings: Streptococcus agalactiae, SPA1, 18 h
Protocol: as §2

M. hyopneumoniae HK (2) = assay: MIC against Mycoplasma in vitro (Friis broth with agarose); type: cell-based; settings: Mesomycoplasma hyopneumoniae, 144 h
[9] = M. hyopneumoniae MS 16, 6 days at 37° C, read-out: MIC
[10] = M. hyopneumoniae LABER, 6 days at 37° C, read-out: MIC
[11] = M. hyopneumoniae ATCC 25095, 6 days at 37° C, read-out: MIC
[12] = M. hyorhinis ATCC 25021, 6 days at 37° C, read-out: MIC
[13] = M. hyosynoviae ATCC 25591, 6 days at 37° C, read-out: MIC
[14] = M. dispar NCTC 10125, 6 days at 37° C, read-out: MIC

Question: How did the MIC (M. hyopneumoniae NB12; 144 h, M. hyopneumoniae NB12, 6 days at 37° C, read-out: MIC) turn out when `CC(=Cc1nnc(-c2ccccc2)o1)CC1OCC(CC2OC2C(C)C(C)O)C(O)C1O` (stereo not drawn) [Example 1, 2-(1-Normon-2-yl)-5-phenyl-1,3,4-oxadiazole A] was run?
Answer: 2.5 µg/mL (≈ 5.62 µM)

Question: And the MIC (M. hyopneumoniae MS 16; [9])?
Answer: 2.5 µg/mL (≈ 5.62 µM)

Question: And the MIC ([1]; M. hyopneumoniae PW/C/210, 6 days at 37° C, read-out: MIC)?
Answer: 2.5 µg/mL (≈ 5.62 µM)

Question: What about the MIC (M. hyopneumoniae LABER; [10]) of the same compound?
Answer: 2.5 µg/mL (≈ 5.62 µM)

Question: And the MIC [2, 11]?
Answer: 2.5 µg/mL (≈ 5.62 µM)

Question: And the MIC ([3]; M. hyopneumoniae NCTC 101101, 6 days at 37° C, read-out: MIC)?
Answer: 5 µg/mL (≈ 11.2 µM)

Question: What about the MIC (M. hyorhinis ATCC 25021; [12]) of the same compound?
Answer: 1 µg/mL (≈ 2.25 µM)

Question: What about the MIC [4, 13] of the same compound?
Answer: 1 µg/mL (≈ 2.25 µM)

Question: What about the MIC (M. bovis NCTC 10131) of the same compound?
Answer: 0.05 µg/mL (≈ 0.112 µM)

Question: What about the MIC [5] of the same compound?
Answer: 0.1 µg/mL (≈ 0.225 µM)

Question: And the MIC (M. dispar NCTC 10125; [14])?
Answer: 0.5 µg/mL (≈ 1.12 µM)

Question: And the MIC ([6]; human, Haemophilus influenzae Q1, 18 hours at 37° C, read-out: MIC)?
Answer: 2.5 µg/mL (≈ 5.62 µM)

Question: What about the MIC ([7]; human, Neisseria catarrhalis 1502, 18 hours at 37° C, read-out: MIC) of the same compound?
Answer: 2.5 µg/mL (≈ 5.62 µM)

Question: What about the MIC (Strep. pneumoniae CN33; CN33, 18 h) of the same compound?
Answer: 100 µg/mL (≈ 225 µM)

Question: What about the MIC (E. coli NCTC 10418) of the same compound?
Answer: > 80 µg/mL

Question: And the MIC (E. coli E1)?
Answer: > 80 µg/mL

Question: And the MIC (S. dublin S7)?
Answer: > 80 µg/mL

Question: What about the MIC (Bord. bronchiseptica B08) of the same compound?
Answer: > 80 µg/mL

Question: What about the MIC (Bord. bronchiseptica B09) of the same compound?
Answer: 40 µg/mL (≈ 90 µM)

Question: And the MIC (Past. multocida PA1)?
Answer: 10 µg/mL (≈ 22.5 µM)

Question: What about the MIC (Past. multocida PA2) of the same compound?
Answer: 1.25 µg/mL (≈ 2.81 µM)

Question: What about the MIC [8] of the same compound?
Answer: 80 µg/mL (≈ 180 µM)

Question: And the MIC (Strep. uberis SPU1)?
Answer: 5 µg/mL (≈ 11.2 µM)

Question: What about the MIC (Strep. agalactiae SPA1) of the same compound?
Answer: 40 µg/mL (≈ 90 µM)

Question: What does the source list for `CC(=Cc1nnc(-c2cccc([N+](=O)[O-])c2)o1)CC1OCC(CC2OC2C(C)C(C)O)C(O)C1O` (stereo not drawn) [Example 2, 2-m-Nitrophenyl-5-(1-normon-2-yl)-1,3,4-oxadiazole A]?
Answer: MIC (M. hyopneumoniae NB12; NB12, 144 h): 0.05 µg/mL (≈ 0.102 µM); MIC (M. hyopneumoniae HK (2)): 0.05 µg/mL (≈ 0.102 µM); MIC (M. hyopneumoniae MS 16; [9]): 0.025 µg/mL (≈ 0.0511 µM); MIC (M. hyopneumoniae LABER; [10]): 0.025 µg/mL (≈ 0.0511 µM); MIC [2, 11]: 0.025 µg/mL (≈ 0.0511 µM); MIC [3]: 0.05 µg/mL (≈ 0.102 µM); MIC (M. hyorhinis ATCC 25021; [12]): 0.025 µg/mL (≈ 0.0511 µM); MIC [4, 13]: 0.5 µg/mL (≈ 1.02 µM); MIC (M. bovis NCTC 10131): 0.025 µg/mL (≈ 0.0511 µM); MIC ([5]; M. bovigenitalium ATCC 14173, 6 days at 37° C, read-out: MIC): 0.025 µg/mL (≈ 0.0511 µM); MIC (M. dispar NCTC 10125; [14]): < 0.01 µg/mL; MIC ([7]; Neisseria, 1502, 18 h): 0.5 µg/mL (≈ 1.02 µM); MIC (Strep. pneumoniae CN33; human, Strep. pneumoniae CN33, 18 hours at 37° C, read-out: MIC): 32 µg/mL (≈ 65.4 µM); MIC (E. coli NCTC 10418): > 80 µg/mL; MIC (E. coli E1): > 80 µg/mL; MIC (S. dublin S7): > 80 µg/mL; MIC (Bord. bronchiseptica B08): > 80 µg/mL; MIC (Bord. bronchiseptica B09): 80 µg/mL (≈ 163 µM); MIC (Past. multocida PA1): 2.5 µg/mL (≈ 5.11 µM); MIC (Past. multocida PA2): 1.25 µg/mL (≈ 2.55 µM); MIC [8]: 40 µg/mL (≈ 81.7 µM); MIC (Strep. uberis SPU1): 2.5 µg/mL (≈ 5.11 µM); MIC (Strep. agalactiae SPA1): 10 µg/mL (≈ 20.4 µM)

Question: With `CC(=CC(=O)NN)CC1OCC(CC2OC2C(C)C(C)O)C(O)C1O` (stereo not drawn) [Example 9, Monohydrazide A] as the compound, how does the MIC (M. hyopneumoniae NB12; NB12, 144 h) read?
Answer: 10 µg/mL (≈ 27.9 µM)

Question: And the MIC (M. hyopneumoniae HK (2))?
Answer: 10 µg/mL (≈ 27.9 µM)

Question: And the MIC (M. hyopneumoniae MS 16)?
Answer: 5 µg/mL (≈ 13.9 µM)

Question: What about the MIC [1] of the same compound?
Answer: 5 µg/mL (≈ 13.9 µM)

Question: And the MIC (M. hyopneumoniae LABER)?
Answer: 5 µg/mL (≈ 13.9 µM)

Question: And the MIC [2]?
Answer: 5 µg/mL (≈ 13.9 µM)

Question: And the MIC [3]?
Answer: 10 µg/mL (≈ 27.9 µM)

Question: What about the MIC (M. hyorhinis ATCC 25021) of the same compound?
Answer: 10 µg/mL (≈ 27.9 µM)

Question: And the MIC [4]?
Answer: 10 µg/mL (≈ 27.9 µM)

Question: And the MIC (M. bovis NCTC 10131)?
Answer: 0.5 µg/mL (≈ 1.39 µM)

Question: What about the MIC [5] of the same compound?
Answer: 0.5 µg/mL (≈ 1.39 µM)

Question: And the MIC (M. dispar NCTC 10125)?
Answer: 2.5 µg/mL (≈ 6.97 µM)

Question: What about the MIC ([6]; Haemophilus influenzae, Q1, 18 h) of the same compound?
Answer: 2.5 µg/mL (≈ 6.97 µM)

Question: What about the MIC ([7]; Neisseria, 1502, 18 h) of the same compound?
Answer: 2.5 µg/mL (≈ 6.97 µM)

Question: And the MIC (Strep. pneumoniae CN33; CN33, 18 h)?
Answer: ≥ 100 µg/mL

Question: What about the MIC (E. coli NCTC 10418) of the same compound?
Answer: > 80 µg/mL

Question: What about the MIC (E. coli E1) of the same compound?
Answer: > 80 µg/mL

Question: And the MIC (S. dublin S7)?
Answer: > 80 µg/mL

Question: And the MIC (Bord. bronchiseptica B08)?
Answer: > 80 µg/mL

Question: And the MIC (Bord. bronchiseptica B09)?
Answer: > 80 µg/mL

Question: What about the MIC (Past. multocida PA1) of the same compound?
Answer: 40 µg/mL (≈ 112 µM)

Question: What about the MIC (Past. multocida PA2) of the same compound?
Answer: 80 µg/mL (≈ 223 µM)

Question: And the MIC [8]?
Answer: > 80 µg/mL

Question: And the MIC (Strep. uberis SPU1)?
Answer: 80 µg/mL (≈ 223 µM)

Question: And the MIC (Strep. agalactiae SPA1)?
Answer: > 80 µg/mL
